Tests used:
Dipeptidyl peptidase 4 [1] = molecular target: Dipeptidyl peptidase 4 (Homo sapiens, UniProt P27487); assay type: cell-free, Plasma
Dipeptidyl peptidase 4 [2] = molecular target: Dipeptidyl peptidase 4 (Rattus norvegicus, UniProt P14740); assay: Inhibition of DPP4 in rat plasma by fluorescence assay; assay type: cell-free
Chain of Dipeptidyl peptidase 4 (Rattus norvegicus, UniProt P14740) (P14740 whole entry): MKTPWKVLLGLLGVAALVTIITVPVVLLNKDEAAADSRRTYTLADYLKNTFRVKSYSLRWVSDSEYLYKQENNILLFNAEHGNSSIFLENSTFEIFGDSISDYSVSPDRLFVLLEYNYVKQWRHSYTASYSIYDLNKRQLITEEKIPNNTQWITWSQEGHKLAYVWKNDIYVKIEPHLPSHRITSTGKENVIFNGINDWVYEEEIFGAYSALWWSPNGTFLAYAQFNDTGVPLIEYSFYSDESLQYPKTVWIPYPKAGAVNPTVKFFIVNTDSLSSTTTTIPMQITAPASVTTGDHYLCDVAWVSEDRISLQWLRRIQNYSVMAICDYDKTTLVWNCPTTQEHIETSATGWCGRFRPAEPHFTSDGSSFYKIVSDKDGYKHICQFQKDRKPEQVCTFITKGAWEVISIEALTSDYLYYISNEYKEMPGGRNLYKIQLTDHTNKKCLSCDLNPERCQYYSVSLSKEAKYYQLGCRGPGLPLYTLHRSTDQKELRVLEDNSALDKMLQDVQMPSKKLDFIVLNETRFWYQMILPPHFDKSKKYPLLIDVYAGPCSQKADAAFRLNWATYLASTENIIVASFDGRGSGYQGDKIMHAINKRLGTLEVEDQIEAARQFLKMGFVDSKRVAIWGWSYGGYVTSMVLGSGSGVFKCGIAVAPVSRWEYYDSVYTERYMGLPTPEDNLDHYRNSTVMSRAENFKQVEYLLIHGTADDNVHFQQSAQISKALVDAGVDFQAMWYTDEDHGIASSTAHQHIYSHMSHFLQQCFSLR

Chain of Dipeptidyl peptidase 4 (Homo sapiens, UniProt P27487) (P27487 whole entry): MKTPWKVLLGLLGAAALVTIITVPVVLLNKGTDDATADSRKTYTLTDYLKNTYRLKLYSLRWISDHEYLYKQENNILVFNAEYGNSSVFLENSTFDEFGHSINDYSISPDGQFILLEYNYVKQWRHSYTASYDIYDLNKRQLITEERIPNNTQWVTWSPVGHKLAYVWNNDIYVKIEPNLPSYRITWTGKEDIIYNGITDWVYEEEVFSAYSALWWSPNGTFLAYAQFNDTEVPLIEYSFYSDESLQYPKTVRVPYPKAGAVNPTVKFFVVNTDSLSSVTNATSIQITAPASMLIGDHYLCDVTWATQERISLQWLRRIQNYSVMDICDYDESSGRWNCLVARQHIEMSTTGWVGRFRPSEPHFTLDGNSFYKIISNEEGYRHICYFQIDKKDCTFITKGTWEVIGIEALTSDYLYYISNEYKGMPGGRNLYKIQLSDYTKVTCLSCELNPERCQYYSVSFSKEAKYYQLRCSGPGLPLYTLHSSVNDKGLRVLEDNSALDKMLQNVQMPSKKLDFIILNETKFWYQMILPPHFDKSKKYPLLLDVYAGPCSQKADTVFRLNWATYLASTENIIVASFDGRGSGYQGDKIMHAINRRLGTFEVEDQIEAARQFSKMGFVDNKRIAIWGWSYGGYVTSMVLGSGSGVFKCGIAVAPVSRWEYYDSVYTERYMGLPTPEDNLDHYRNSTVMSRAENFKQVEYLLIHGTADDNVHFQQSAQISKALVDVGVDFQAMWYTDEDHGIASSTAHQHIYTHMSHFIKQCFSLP

SMILES: N#Cc1ccc(C(=O)O[C@@H]2CN[C@H](C(=O)N3CCSC3)C2)cc1
- IC50 (Dipeptidyl peptidase 4 [1]): > 300 nM
- IC50 (Dipeptidyl peptidase 4 [2]): > 300 nM

SMILES: N#Cc1ccc(S(=O)(=O)N[C@@H]2CN[C@H](C(=O)N3CCSC3)C2)cc1
- IC50 (Dipeptidyl peptidase 4 [1]): > 300 nM
- IC50 (Dipeptidyl peptidase 4 [2]): > 300 nM

SMILES: COc1ccc(N[C@@H]2CN[C@H](C(=O)N3CCSC3)C2)cc1
- IC50 (Dipeptidyl peptidase 4 [2]): 54.9 nM

SMILES: O=C(N[C@@H]1CN[C@H](C(=O)N2CCSC2)C1)c1ccccc1
- IC50 (Dipeptidyl peptidase 4 [1]): > 300 nM

SMILES: CN(Cc1ccc(C#N)cc1)[C@@H]1CN[C@H](C(=O)N2CCSC2)C1
- IC50 (Dipeptidyl peptidase 4 [2]): 13.6 nM

SMILES: O=C([C@@H]1C[C@H](N2CCc3cc([N+](=O)[O-])ccc32)CN1)N1CCSC1
- IC50 (Dipeptidyl peptidase 4 [2]): 10.3 nM

SMILES: O=C([C@@H]1C[C@H](N2CCc3cc(F)ccc32)CN1)N1CCSC1
- IC50 (Dipeptidyl peptidase 4 [2]): 10.1 nM

SMILES: N#Cc1ccc(CN(CCO)[C@@H]2CN[C@H](C(=O)N3CCSC3)C2)cc1
- IC50 (Dipeptidyl peptidase 4 [2]): 23 nM

SMILES: O=C([C@@H]1C[C@H](N2CCc3ccccc32)CN1)N1CCSC1
- IC50 (Dipeptidyl peptidase 4 [2]): 19.5 nM

SMILES: O=C([C@@H]1C[C@H](N2CCc3cc(Br)ccc32)CN1)N1CCSC1
- IC50 (Dipeptidyl peptidase 4 [2]): 10.7 nM

SMILES: O=C([C@@H]1C[C@H](NS(=O)(=O)c2ccccc2)CN1)N1CCSC1
- IC50 (Dipeptidyl peptidase 4 [1]): > 300 nM
- IC50 (Dipeptidyl peptidase 4 [2]): > 300 nM

SMILES: O=C(O[C@@H]1CN[C@H](C(=O)N2CCSC2)C1)c1ccccc1
- IC50 (Dipeptidyl peptidase 4 [1]): > 300 nM
- IC50 (Dipeptidyl peptidase 4 [2]): > 300 nM

SMILES: O=C([C@@H]1C[C@H](N2CCc3cc(Cl)ccc32)CN1)N1CCSC1
- IC50 (Dipeptidyl peptidase 4 [2]): 13.4 nM
